T/C data for 3 compounds are collected here from PubChem BioAssay AID192 (DTP/NCI, 2004).

Each structure is given as a SMILES string. “And” between values parts separate entries of the source, which are not always exact repeats. Equal values may be shown once. Toxic doses and inconclusive results are not listed. Numbered stars: 1 amine (or outer) side, 2 acyl side, 3 side chain; on linkers, the order of the positions; unused ones are H or OH. Bridge positions count the residues as written; N and C are the ends. Square brackets hold non-standard residues; d marks the D form. Peptide text beside a SMILES is read from it. I, II: the chains in the order shown. Actinocin(9to1) = Cc1c2oc3c(C)ccc(C(=O)[*:1])c3nc-2c(C(=O)[*:2])c(N)c1=O; aThr = C[C@H](O)[C@H](N)C(=O)O; NMeV = CN[C@H](C(=O)O)C(C)C; Sar = CNCC(=O)O

The test deals with BDF1 mice, B16 melanoma ip, median survival T/C. In words: NCI In Vivo Anticancer Drug Screen. Data for tumor model B16 Melanoma (intraperitoneal) in B6D2F1 (BDF1) mice. The note with it: endpoint: median survival time, higher = longer survival. An outline of the steps: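 Antitumor activity is assessed in mice bearing a transplanted tumor, with survival or tumor size compared against vehicle-dosed controls and expressed as T/C.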

As to `Cc1c2oc3c(C)ccc(C(=O)N[C@@H]4C(=O)N[C@H](C(C)C)C(=O)N5CCC[C@H]5C(=O)N(C)CC(=O)N(C)[C@@H](C(C)C)C(=O)O[C@H]4C)c3nc-2c(C(=O)N[C@@H]2C(=O)N[C@H](C(C)C)C(=O)N3CCC[C@H]3C(=O)N(C)CC(=O)N(C)[C@@H](C(C)C)C(=O)O[C@H]2C)c(N)c1=O` (I: [aThr][dV]P[Sar][NMeV] / II: [aThr][dV]P[Sar][NMeV]; ester I:1-I:C, II:1-II:C; linker I:N-II:N via Actinocin(9to1)), the T/C (dose: 0.03 mg/kg/injection, schedule: Q01DX009 (ip), vehicle: water) is 157 % of control; the T/C (dose: 0.05 mg/kg/injection, schedule: Q01DX009 (ip), vehicle: water) is 186 % of control; the T/C (dose: 0.05 mg/kg/injection, schedule: Q04DX003 (ip), vehicle: saline) is 123 % of control and 124 % of control; the T/C (dose: 0.08 mg/kg/injection, schedule: Q01DX009 (ip), vehicle: saline) was 169 % of control; the T/C (dose: 0.13 mg/kg/injection, schedule: Q01DX009 (ip), vehicle: saline) is 44 % of control; the T/C (dose: 0.2 mg/kg/injection, schedule: Q04DX003 (ip), vehicle: saline) was 164 % of control. In addition, the T/C by setting is: (dose: 0.22 mg/kg/injection, schedule: Q01DX009 (ip), vehicle: saline) 42 % of control; (dose: 0.4 mg/kg/injection, schedule: Q04DX003 (ip), vehicle: saline) 65 % of control and 69 % of control; (dose: 0.5 micrograms/kg/injection, schedule: Q01DX009 (ip), vehicle: saline) 119 % of control; (dose: 2.0 micrograms/kg/injection, schedule: Q01DX009 (ip), vehicle: saline) 116 % of control; (dose: 4.0 micrograms/kg/injection, schedule: Q01DX009 (ip), vehicle: saline) 150 % of control; (dose: 6.25 micrograms/kg/injection, schedule: Q01DX009 (ip), vehicle: saline) 101 % of control. Besides, the T/C by setting is: (dose: 6.3 micrograms/kg/injection, schedule: Q01DX009 (ip), vehicle: saline) 96 % of control; (dose: 6.5 micrograms/kg/injection, schedule: Q01DX009 (ip), vehicle: saline) 120 % of control; (dose: 10.8 micrograms/kg/injection, schedule: Q01DX009 (ip), vehicle: saline) 112 % of control; (dose: 12.5 micrograms/kg/injection, schedule: Q01DX009 (ip), vehicle: water) 120 % of control; (dose: 16.0 micrograms/kg/injection, schedule: Q01DX009 (ip), vehicle: saline) 157 % of control; (dose: 16.0 micrograms/kg/injection, schedule: Q01DX017 (ip), vehicle: saline) 185 % of control. Further, the T/C runs as follows: (dose: 21.6 micrograms/kg/injection, schedule: Q01DX009 (ip), vehicle: saline + alcohol) 123 % of control; (dose: 25.0 micrograms/kg/injection, schedule: Q01DX009 (ip), vehicle: saline + alcohol) 120 % of control; (dose: 32.0 micrograms/kg/injection, schedule: Q01DX005 (ip), vehicle: saline) 120 % of control; (dose: 32.0 micrograms/kg/injection, schedule: Q01DX009 (ip), vehicle: saline) 155 % of control; (dose: 32.0 micrograms/kg/injection, schedule: Q01DX017 (ip), vehicle: saline) 200 % of control; (dose: 36.0 micrograms/kg/injection, schedule: Q01DX009 (ip), vehicle: saline + alcohol) 152 % of control. Further, the T/C is 153 % of control (dose: 37.5 micrograms/kg/injection, schedule: Q01DX009 (ip), vehicle: saline + alcohol); 159 % of control (dose: 37.5 micrograms/kg/injection, schedule: Q01DX009 (ip), vehicle: saline); 118 % of control (dose: 37.5 micrograms/kg/injection, schedule: Q04DX003 (ip), vehicle: saline); 123 % of control (dose: 38.9 micrograms/kg/injection, schedule: Q04DX003 (ip), vehicle: saline + alcohol); 158 % of control (dose: 50.0 micrograms/kg/injection, schedule: Q01DX009 (ip), vehicle: saline + alcohol); 152 % of control and 166 % of control (dose: 50.0 micrograms/kg/injection, schedule: Q01DX009 (ip), vehicle: water). Further, the T/C runs as follows: (dose: 60.0 micrograms/kg/injection, schedule: Q01DX009 (ip), vehicle: saline + alcohol) 152 % of control and 161 % of control; (dose: 64.0 micrograms/kg/injection, schedule: Q01DX005 (ip), vehicle: saline) 152 % of control; (dose: 64.8 micrograms/kg/injection, schedule: Q04DX003 (ip), vehicle: saline + alcohol) 154 % of control; (dose: 75.0 micrograms/kg/injection, schedule: Q01DX009 (ip), vehicle: saline) 186 % of control; (dose: 75.0 micrograms/kg/injection, schedule: Q04DX003 (ip), vehicle: water) 123 % of control; (dose: 83.0 micrograms/kg/injection, schedule: Q01DX009 (ip), vehicle: saline) 175 % of control. Further, the T/C is 169 % of control (dose: 100.0 micrograms/kg/injection, schedule: Q01DX009 (ip), vehicle: saline + alcohol); 175 % of control (dose: 100.0 micrograms/kg/injection, schedule: Q01DX009 (ip), vehicle: water); 150 % of control and 159 % of control and 160 % of control (dose: 108.0 micrograms/kg/injection, schedule: Q04DX003 (ip), vehicle: saline + alcohol); 165 % of control (dose: 128.0 micrograms/kg/injection, schedule: Q01DX005 (ip), vehicle: saline); 150 % of control (dose: 128.0 micrograms/kg/injection, schedule: Q04DX003 (ip), vehicle: saline); 164 % of control and 172 % of control and 176 % of control (dose: 180.0 micrograms/kg/injection, schedule: Q04DX003 (ip), vehicle: saline + alcohol). Besides, the T/C was 91 % of control (dose: 225.0 micrograms/kg/injection, schedule: Q04DX003 (ip), vehicle: saline + alcohol); 159 % of control (dose: 225.0 micrograms/kg/injection, schedule: Q04DX003 (ip), vehicle: saline); 165 % of control (dose: 256.0 micrograms/kg/injection, schedule: Q04DX003 (ip), vehicle: saline); 168 % of control and 169 % of control (dose: 300.0 micrograms/kg/injection, schedule: Q04DX003 (ip), vehicle: saline); 106 % of control (dose: 300.0 micrograms/kg/injection, schedule: Q04DX003 (ip), vehicle: water); 101 % of control (dose: 500.0 micrograms/kg/injection, schedule: Q04DX003 (ip), vehicle: saline + alcohol). The T/C runs as follows: (dose: 512.0 micrograms/kg/injection, schedule: Q01DX001 (ip), vehicle: saline) 92 % of control; (dose: 600.0 micrograms/kg/injection, schedule: Q04DX003 (ip), vehicle: saline) 231 % of control.
As for `O=c1oc2c3ccccc3c3ccccc3c2o1`, the T/C runs as follows: (dose: 1.56 mg/kg/injection, schedule: Q01DX009 (ip), vehicle: Klucel (hydroxypropylcellulose) (HPC)) 100 % of control; (dose: 3.12 mg/kg/injection, schedule: Q01DX009 (ip), vehicle: Klucel (hydroxypropylcellulose) (HPC)) 96 % of control; (dose: 6.25 mg/kg/injection, schedule: Q01DX009 (ip), vehicle: Klucel (hydroxypropylcellulose) (HPC)) 113 % of control; (dose: 12.5 mg/kg/injection, schedule: Q01DX009 (ip), vehicle: Klucel (hydroxypropylcellulose) (HPC)) 106 % of control; (dose: 25.0 mg/kg/injection, schedule: Q01DX009 (ip), vehicle: Klucel (hydroxypropylcellulose) (HPC)) 86 % of control and 96 % of control.
Take `CC(CN(C)C)CN1c2ccccc2Sc2ccc(C(F)(F)F)cc21` (stereo not given): the T/C (dose: 0.78 mg/kg/injection, schedule: Q01DX009 (ip), vehicle: saline) was 109 % of control; the T/C (dose: 1.56 mg/kg/injection, schedule: Q01DX009 (ip), vehicle: saline) is 105 % of control; the T/C (dose: 3.12 mg/kg/injection, schedule: Q01DX009 (ip), vehicle: saline) was 116 % of control; the T/C (dose: 6.25 mg/kg/injection, schedule: Q01DX009 (ip), vehicle: saline) was 103 % of control; the T/C (dose: 12.5 mg/kg/injection, schedule: Q01DX009 (ip), vehicle: saline) was 103 % of control.
